Measured values published in patent publication US20050197350A1, “Novel quinoline, tetrahydroquinazoline, and pyrimidine derivatives and methods of treatment related to the use thereof” (TAISHO PHARMACEUTICAL CO., LTD., priority 2003, published 2005).

system: MCH receptors; experiment: MCH receptor activity class (method not given); conditions: MCH receptor activity class 1-3 (percent of control at 10^-7 M or IC50)

Q: For `COc1ccc(NC(=S)N[C@H]2CC[C@@H](Nc3nccc(N(C)C)n3)CC2)c(C)c1` [compound 2341], which class is on record?
A: Its class is 3 (Class 3 The value of percent of control at 10^−7 M was more than 60% or the value of IC50 was more than 200 nM.).

Q: How did the class turn out when `COc1cc(OC)c(NC(=S)N[C@H]2CC[C@@H](Nc3nccc(N(C)C)n3)CC2)cc1Cl` [compound 2342] was run?
A: The class was 1 (Class 1: The value of percent of control at 10^−7 M was less than 40% or the value of IC50 was less than 50 nM.).

Q: `C[C@@H](NC(=S)N[C@H]1CC[C@@H](Nc2nccc(N(C)C)n2)CC1)c1ccccc1` [compound 2343] was tested. Which class did it give?
A: Its class is 3 (Class 3 The value of percent of control at 10^−7 M was more than 60% or the value of IC50 was more than 200 nM.).

Q: For `Cc1cccc(NC(=S)N[C@H]2CC[C@@H](Nc3nccc(N(C)C)n3)CC2)c1C` [compound 2344], which class is on record?
A: The class was 3 (Class 3 The value of percent of control at 10^−7 M was more than 60% or the value of IC50 was more than 200 nM.).

Q: Which class does the source give for `CN(C)c1ccnc(N[C@H]2CC[C@@H](NC(=S)Nc3c(F)cc(Br)cc3Br)CC2)n1` [compound 2345] here?
A: Its class is 2 (Class 2: The value of percent of control at 10^−7 M was from 40% to 60% or the value of IC′50 was from 50 nM to 200 nM.).

Q: With `Cc1cc(Cl)cc(Cl)c1NC(=S)N[C@H]1CC[C@@H](Nc2nccc(N(C)C)n2)CC1` [compound 2346, N-(2,4-dichloro-6-methylphenyl)-N′-(cis-4-{[4-(dimethylamino)pyrimidin-2-yl]amino}cyclohexyl)thiourea] as the molecule, how does the class read?
A: The class was 2 (Class 2: The value of percent of control at 10^−7 M was from 40% to 60% or the value of IC′50 was from 50 nM to 200 nM.).

Q: Which class does the source give for `CCOc1ccccc1NC(=S)N[C@H]1CC[C@@H](Nc2nccc(N(C)C)n2)CC1` [compound 2347] here?
A: The class was 3 (Class 3 The value of percent of control at 10^−7 M was more than 60% or the value of IC50 was more than 200 nM.).

Q: `Cc1cccc(C(C)C)c1NC(=S)N[C@H]1CC[C@@H](Nc2nccc(N(C)C)n2)CC1` [compound 2348] was tested. Which class did it give?
A: The class was 3 (Class 3 The value of percent of control at 10^−7 M was more than 60% or the value of IC50 was more than 200 nM.).

Q: How did the class turn out when `CN(C)c1ccnc(N[C@H]2CC[C@@H](NC(=S)Nc3ccc4c(c3)OCCO4)CC2)n1` [compound 2349] was run?
A: The class was 3 (Class 3 The value of percent of control at 10^−7 M was more than 60% or the value of IC50 was more than 200 nM.).

Q: With `CN(C)c1ccnc(N[C@H]2CC[C@@H](NC(=S)Nc3ccc4c(c3)OCO4)CC2)n1` [compound 2350] as the molecule, how does the class read?
A: The class was 3 (Class 3 The value of percent of control at 10^−7 M was more than 60% or the value of IC50 was more than 200 nM.).

Q: How did the class turn out when `Cc1c(Cl)cccc1NC(=S)N[C@H]1CC[C@@H](Nc2nccc(N(C)C)n2)CC1` [compound 2351] was run?
A: Its class is 3 (Class 3 The value of percent of control at 10^−7 M was more than 60% or the value of IC50 was more than 200 nM.).

Q: How did the class turn out when `CN(C)c1ccnc(N[C@H]2CC[C@@H](NC(=S)Nc3ccc(Br)cc3OC(F)(F)F)CC2)n1` [compound 2352] was run?
A: The class was 3 (Class 3 The value of percent of control at 10^−7 M was more than 60% or the value of IC50 was more than 200 nM.).

Q: For `COc1cc(NC(=S)N[C@H]2CC[C@@H](Nc3nccc(N(C)C)n3)CC2)c(OC)cc1Cl` [compound 2353], which class is on record?
A: The class was 3 (Class 3 The value of percent of control at 10^−7 M was more than 60% or the value of IC50 was more than 200 nM.).

Q: How did the class turn out when `Cc1onc(-c2ccccc2)c1NC(=S)N[C@H]1CC[C@@H](Nc2nccc(N(C)C)n2)CC1` [compound 2354] was run?
A: The class was 3 (Class 3 The value of percent of control at 10^−7 M was more than 60% or the value of IC50 was more than 200 nM.).

Q: Which class does the source give for `COC(=O)c1scc(C)c1NC(=S)N[C@H]1CC[C@@H](Nc2nccc(N(C)C)n2)CC1` [compound 2356] here?
A: The class was 3 (Class 3 The value of percent of control at 10^−7 M was more than 60% or the value of IC50 was more than 200 nM.).

Q: For `COC(=O)c1sccc1NC(=S)N[C@H]1CC[C@@H](Nc2nccc(N(C)C)n2)CC1` [compound 2357], which class is on record?
A: Its class is 3 (Class 3 The value of percent of control at 10^−7 M was more than 60% or the value of IC50 was more than 200 nM.).

Q: How did the class turn out when `CCCCc1ccc(NC(=S)N[C@H]2CC[C@@H](Nc3nccc(N(C)C)n3)CC2)c(C)c1` [compound 2358] was run?
A: Its class is 3 (Class 3 The value of percent of control at 10^−7 M was more than 60% or the value of IC50 was more than 200 nM.).

Q: How did the class turn out when `CN(C)c1cc(N[C@H]2CC[C@@H](CNC(=O)Nc3ccccc3Cl)CC2)nc2ccccc12` [compound 2359] was run?
A: Its class is 3 (Class 3 The value of percent of control at 10^−7 M was more than 60% or the value of IC50 was more than 200 nM.).

Q: Which class does the source give for `Cc1cccc(C)c1NC(=O)NC[C@H]1CC[C@@H](Nc2cc(N(C)C)c3ccccc3n2)CC1` [compound 2360] here?
A: The class was 3 (Class 3 The value of percent of control at 10^−7 M was more than 60% or the value of IC50 was more than 200 nM.).

Q: With `CN(C)c1cc(N[C@H]2CC[C@@H](CNC(=O)Nc3ccc(F)cc3F)CC2)nc2ccccc12` [compound 2361] as the molecule, how does the class read?
A: The class was 3 (Class 3 The value of percent of control at 10^−7 M was more than 60% or the value of IC50 was more than 200 nM.).

Q: For `CCc1cccc(C)c1NC(=O)NC[C@H]1CC[C@@H](Nc2cc(N(C)C)c3ccccc3n2)CC1` [compound 2362, N-[(cis-4-{[4-(dimethylamino)quinolin-2-yl]amino}cyclohexyl)methyl]-N′-(2-ethyl-6-methylphenyl)urea], which class is on record?
A: Its class is 2 (Class 2: The value of percent of control at 10^−7 M was from 40% to 60% or the value of IC′50 was from 50 nM to 200 nM.).

Q: With `CN(C)c1cc(N[C@H]2CC[C@@H](CNC(=O)Nc3ccc(F)cc3)CC2)nc2ccccc12` [compound 2364] as the molecule, how does the class read?
A: Its class is 3 (Class 3 The value of percent of control at 10^−7 M was more than 60% or the value of IC50 was more than 200 nM.).

Q: `CSc1ccc(NC(=O)NC[C@H]2CC[C@@H](Nc3cc(N(C)C)c4ccccc4n3)CC2)cc1` [compound 2365] was tested. Which class did it give?
A: The class was 3 (Class 3 The value of percent of control at 10^−7 M was more than 60% or the value of IC50 was more than 200 nM.).

Q: `CN(C)c1cc(N[C@H]2CC[C@@H](CNC(=O)Nc3ccccc3C(F)(F)F)CC2)nc2ccccc12` [compound 2366] was tested. Which class did it give?
A: The class was 3 (Class 3 The value of percent of control at 10^−7 M was more than 60% or the value of IC50 was more than 200 nM.).

Q: Which class does the source give for `Cc1cc(C)c(NC(=O)NC[C@H]2CC[C@@H](Nc3cc(N(C)C)c4ccccc4n3)CC2)c(C)c1` [compound 2367, N-[(cis-4-{[4-(dimethylamino)quinolin-2-yl]amino}cyclohexyl)methyl]-N′-mesitylurea] here?
A: Its class is 2 (Class 2: The value of percent of control at 10^−7 M was from 40% to 60% or the value of IC′50 was from 50 nM to 200 nM.).

Q: With `Cc1ccccc1NC(=O)NC[C@H]1CC[C@@H](Nc2cc(N(C)C)c3ccccc3n2)CC1` [compound 2368] as the molecule, how does the class read?
A: Its class is 3 (Class 3 The value of percent of control at 10^−7 M was more than 60% or the value of IC50 was more than 200 nM.).

Q: With `CN(C)c1cc(N[C@H]2CC[C@@H](CNC(=O)Nc3c(Cl)cc(Cl)cc3Cl)CC2)nc2ccccc12` [compound 2369, N-[(cis-4-{[4-(dimethylamino)quinolin-2-yl]amino}cyclohexyl)methyl]-N′-(2,4,6-trichlorophenyl)urea] as the molecule, how does the class read?
A: Its class is 1 (Class 1: The value of percent of control at 10^−7 M was less than 40% or the value of IC50 was less than 50 nM.).

Q: With `CN(C)c1cc(N[C@H]2CC[C@@H](CNC(=O)Nc3c(F)cc(Br)cc3Br)CC2)nc2ccccc12` [compound 2371, N-(2,4-dibromo-6-fluorophenyl)-N′-[(cis-4-{[4-(dimethylamino)quinolin-2-yl]amino}cyclohexyl)methyl]urea] as the molecule, how does the class read?
A: The class was 1 (Class 1: The value of percent of control at 10^−7 M was less than 40% or the value of IC50 was less than 50 nM.).

Q: For `CCc1cccc(CC)c1NC(=O)NC[C@H]1CC[C@@H](Nc2cc(N(C)C)c3ccccc3n2)CC1` [compound 2372], which class is on record?
A: Its class is 2 (Class 2: The value of percent of control at 10^−7 M was from 40% to 60% or the value of IC′50 was from 50 nM to 200 nM.).

Q: How did the class turn out when `CN(C)c1cc(N[C@H]2CC[C@@H](CNC(=O)Nc3c(Cl)cccc3C(F)(F)F)CC2)nc2ccccc12` [compound 2373] was run?
A: Its class is 2 (Class 2: The value of percent of control at 10^−7 M was from 40% to 60% or the value of IC′50 was from 50 nM to 200 nM.).

Q: `Cc1cccc(Cl)c1NC(=O)NC[C@H]1CC[C@@H](Nc2cc(N(C)C)c3ccccc3n2)CC1` [compound 2374] was tested. Which class did it give?
A: The class was 3 (Class 3 The value of percent of control at 10^−7 M was more than 60% or the value of IC50 was more than 200 nM.).

Q: With `CN(C)c1cc(N[C@H]2CC[C@@H](CNC(=O)NCc3ccccc3Cl)CC2)nc2ccccc12` [compound 2375] as the molecule, how does the class read?
A: The class was 3 (Class 3 The value of percent of control at 10^−7 M was more than 60% or the value of IC50 was more than 200 nM.).

Q: `CCc1cccc(C(C)C)c1NC(=O)NC[C@H]1CC[C@@H](Nc2cc(N(C)C)c3ccccc3n2)CC1` [compound 2376, N-[(cis-4-{[4-(dimethylamino)quinolin-2-yl]amino}cyclohexyl)methyl]-N′-(2-ethyl-6-isopropylphenyl)urea] was tested. Which class did it give?
A: The class was 1 (Class 1: The value of percent of control at 10^−7 M was less than 40% or the value of IC50 was less than 50 nM.).

Q: How did the class turn out when `CCc1ccccc1NC(=O)NC[C@H]1CC[C@@H](Nc2cc(N(C)C)c3ccccc3n2)CC1` [compound 2377] was run?
A: The class was 3 (Class 3 The value of percent of control at 10^−7 M was more than 60% or the value of IC50 was more than 200 nM.).

Q: `CN(C)c1cc(N[C@H]2CC[C@@H](CNC(=O)Nc3ccccc3I)CC2)nc2ccccc12` [compound 2378] was tested. Which class did it give?
A: Its class is 3 (Class 3 The value of percent of control at 10^−7 M was more than 60% or the value of IC50 was more than 200 nM.).

Q: For `Cc1cccc(C(C)C)c1NC(=O)NC[C@H]1CC[C@@H](Nc2cc(N(C)C)c3ccccc3n2)CC1` [compound 2379], which class is on record?
A: Its class is 2 (Class 2: The value of percent of control at 10^−7 M was from 40% to 60% or the value of IC′50 was from 50 nM to 200 nM.).

Q: `CC(C)c1ccccc1NC(=O)NC[C@H]1CC[C@@H](Nc2cc(N(C)C)c3ccccc3n2)CC1` [compound 2380] was tested. Which class did it give?
A: Its class is 3 (Class 3 The value of percent of control at 10^−7 M was more than 60% or the value of IC50 was more than 200 nM.).

Q: `Cc1c(NC(=O)NC[C@H]2CC[C@@H](Nc3cc(N(C)C)c4ccccc4n3)CC2)cccc1[N+](=O)[O-]` [compound 2381, N-[(cis-4-{[4-(dimethylamino)quinolin-2-yl]amino}cyclohexyl)methyl]-N′-(2-methyl-3-nitrophenyl)urea] was tested. Which class did it give?
A: Its class is 2 (Class 2: The value of percent of control at 10^−7 M was from 40% to 60% or the value of IC′50 was from 50 nM to 200 nM.).

Q: `CCCc1ccccc1NC(=O)NC[C@H]1CC[C@@H](Nc2cc(N(C)C)c3ccccc3n2)CC1` [compound 2382] was tested. Which class did it give?
A: Its class is 3 (Class 3 The value of percent of control at 10^−7 M was more than 60% or the value of IC50 was more than 200 nM.).
